Data: US20260265244A1, “HETEROCYCLIC COMPOUNDS AS STING ANTAGONISTS” (Boehringer Ingelheim International GmbH, priority 2022, published 2026)

Test system: STING inhibition in human whole blood (IFNα2α production)
Test: Human whole blood assay (HWBA): cGAMP-stimulated IFNα2α production
Type: cell-based
Conditions: Homo sapiens
Outline: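 Na-citrate human whole blood from ≥3 healthy donors, preincubated 60 min at room temperature with compound (8 concentrations, top 10 μM, ~1:5 steps, 0.1% DMSO), then stimulated with cGAMP and incubated 22 h at 37 °C. Plasma IFNα2α measured by MSD immunoassay; % control versus stimulated/unstimulated wells, IC50 by 4-parameter logistic fit.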

Row | SMILES | IC50 [nM]
1 | Cc1nc2nn(CC(O)CO)cc2cc1-n1nc(-c2cccc3nn(C[C@H](O)c4ccccc4)cc23)c(C(C)C)c1C (stereo partly drawn) [Example 67, 3-[5-(3-{2-[(2R)-2-hydroxy-2-phenylethyl]-2H-indazol-4-yl}-5-methyl-4-(propan-2-yl)-1H-pyrazol-1-yl)-6-methyl-2H-pyrazolo[3,4-b]pyridin-2-yl]propane-1,2-diol] | 330
2 | Cn1cc2cc(-c3nc(-c4cccc5nn(C[C@H](O)c6ccc(OCC7CCOCC7)cc6)cc45)c(C4CC4)n3C)c(C3CC3)nc2n1 [Example 68] | 350
3 | Cn1cc2cc(-c3nc(-c4cccc5nn(C[C@H](O)c6ccc(OC7COC7)cc6)cc45)c(C4CC4)n3C)c(C3CC3)nc2n1 [Example 69, (1R)-2-[4-(5-cyclopropyl-2-{6-cyclopropyl-2-methyl-2H-pyrazolo[3,4-b]pyridin-5-yl}-1-methyl-1H-imidazol-4-yl)-2H-indazol-2-yl]-1-[4-(oxetan-3-yloxy)phenyl]ethan-1-ol] | 360
4 | Cc1nc2nn(CC(O)CN3CCN(C)CC3)cc2cc1-n1nc(-c2cccc3nn(C[C@H](O)c4ccccc4)cc23)c(C(C)C)c1C (stereo partly drawn) [Example 70, 1-[5-(3-{2-[(2R)-2-hydroxy-2-phenylethyl]-2H-indazol-4-yl}-5-methyl-4-(propan-2-yl)-1H-pyrazol-1-yl)-6-methyl-2H-pyrazolo[3,4-b]pyridin-2-yl]-3-(4-methylpiperazin-1-yl)propan-2-ol] | 370
5 | CCc1nc2nn(C)cc2cc1-c1nc(-c2cccc3nn(C[C@H](F)c4ccc(Cl)cc4)cc23)c(C2CC2)n1C [Example 72, 2-[(2R)-2-(4-chlorophenyl)-2-fluoroethyl]-4-(5-cyclopropyl-2-{6-ethyl-2-methyl-2H-pyrazolo[3,4-b]pyridin-5-yl}-1-methyl-1H-imidazol-4-yl)-2H-indazole] | 400
6 | Cc1c(C(C)C)c(-c2cccc3nn(C[C@H](O)c4ccccc4)cc23)nn1-c1cc2cn(C)nc2nc1C1CCOCC1 [Example 73, (1R)-2-(4-{5-methyl-1-[2-methyl-6-(oxan-4-yl)-2H-pyrazolo[3,4-b]pyridin-5-yl]-4-(propan-2-yl)-1H-pyrazol-3-yl}-2H-indazol-2-yl)-1-phenylethan-1-ol] | 440
7 | CC(C)c1nc2nn(C)cc2cc1-c1nc(-c2cccc3nn(CS(=O)(=O)c4ccccc4)cc23)c(C2CC2)n1C [Example 96, 2-[(Benzenesulfonyl)methyl]-4-{5-cyclopropyl-1-methyl-2-[2-methyl-6-(propan-2-yl)-2H-pyrazolo[3,4-b]pyridin-5-yl]-1H-imidazol-4-yl}-2H-indazole] | 2900
8 | CC(C)c1nc2nn(C)cc2cc1-c1nc(-c2cccc3nn(C[C@H](O)c4ccccc4)cc23)c(C2CC2)n1C [Example 97, (1R)-2-(4-{5-Cyclopropyl-1-methyl-2-[2-methyl-6-(propan-2-yl)-2H-pyrazolo[3,4-b]pyridin-5-yl]-1H-imidazol-4-yl}-2H-indazol-2-yl)-1-phenylethan-1-ol] | 52
9 | Cc1nc2nn(CC#N)cc2cc1-n1nc(-c2cccc3nn(C[C@H](O)c4ccccc4)cc23)c(C(C)C)c1C [Example 98, 2-[5-(3-{2-[(2R)-2-hydroxy-2-phenylethyl]-2H-indazol-4-yl}-5-methyl-4-(propan-2-yl)-1H-pyrazol-1-yl)-6-methyl-2H-pyrazolo[3,4-b]pyridin-2-yl]acetonitrile] | 31
10 | CCn1cc2cc(-n3nc(-c4cccc5nn(C[C@H](O)c6ccccc6)cc45)c(C(C)C)c3C)c(C)nc2n1 [Example 100, (1R)-2-[4-(1-{2-ethyl-6-methyl-2H-pyrazolo[3,4-b]pyridin-5-yl}-5-methyl-4-(propan-2-yl)-1H-pyrazol-3-yl)-2H-indazol-2-yl]-1-phenylethan-1-ol] | 37
11 | Cc1c(C(C)C)c(-c2cccc3nn(C[C@H](O)c4ccc(OCCN(C)C)cc4)cc23)nn1-c1cc2cn(C)nc2nc1C1CC1 [Example 101] | 39
12 | Cc1nc2nn(C)cc2cc1-n1nc(-c2cccc3nn(C[C@H](O)c4ccccc4)cc23)c(C(C)C)c1C [Example 102, (1R)-2-[4-(1-{2,6-Dimethyl-2H-pyrazolo[3,4-b]pyridin-5-yl}-5-methyl-4-(propan-2-yl)-1H-pyrazol-3-yl)-2H-indazol-2-yl]-1-phenylethan-1-ol] | 40
13 | Cc1nc2nn(CC(F)F)cc2cc1-n1nc(-c2cccc3nn(C[C@H](O)c4ccccc4)cc23)c(C(C)C)c1C [Example 103, (1R)-2-(4-{1-[2-(2,2-difluoroethyl)-6-methyl-2H-pyrazolo[3,4-b]pyridin-5-yl]-5-methyl-4-(propan-2-yl)-1H-pyrazol-3-yl}-2H-indazol-2-yl)-1-phenylethan-1-ol] | 44
14 | Cn1c(-c2cc3cn(CCC#N)nc3nc2C2CC2)nc(-c2cccc3nn(C[C@H](O)c4ccccc4)cc23)c1C1CC1 [Example 104, 3-[6-cyclopropyl-5-(5-cyclopropyl-4-{2-[(2R)-2-hydroxy-2-phenylethyl]-2H-indazol-4-yl}-1-methyl-1H-imidazol-2-yl)-2H-pyrazolo[3,4-b]pyridin-2-yl]propanenitrile] | 49
15 | Cc1nc2cc(C)c(-n3nc(-c4cccc5nn(C[C@H](O)c6ccccc6)cc45)c(C(C)C)c3C)cc2[nH]1 [Example 105, (1R)-2-{4-[1-(2,5-dimethyl-1H-1,3-benzodiazol-6-yl)-5-methyl-4-(propan-2-yl)-1H-pyrazol-3-yl]-2H-indazol-2-yl}-1-phenylethan-1-ol] | 1600
16 | Cc1c(C(C)C)c(-c2cccc3nn(C[C@H](O)c4ccccc4)cc23)nn1-c1cc2cn(C)nc2nc1CO [Example 106, (1R)-2-(4-{1-[6-(hydroxymethyl)-2-methyl-2H-pyrazolo[3,4-b]pyridin-5-yl]-5-methyl-4-(propan-2-yl)-1H-pyrazol-3-yl}-2H-indazol-2-yl)-1-phenylethan-1-ol] | 28
17 | CCc1nc2nn(C)cc2cc1-c1nc(-c2cccc3nn(C[C@H](F)c4ccccc4)cc23)c(C2CC2)n1C [Example 107, 4-(5-cyclopropyl-2-{6-ethyl-2-methyl-2H-pyrazolo[3,4-b]pyridin-5-yl}-1-methyl-1H-imidazol-4-yl)-2-[(2R)-2-fluoro-2-phenylethyl]-2H-indazole] | 31
18 | Cc1nc2nn(C)cc2cc1-n1nc(-c2cccc3nn(C[C@H](OCC(N)=O)c4ccccc4)cc23)c(C(C)C)c1C [Example 108, 2-[(1R) -2-[4-(1-{2,6-dimethyl-2H-pyrazolo[3,4-b]pyridin-5-yl}-5-methyl-4-(propan-2-yl)-1H-pyrazol-3-yl)-2H-indazol-2-yl]-1-phenylethoxy]acetamide] | 38
19 | CC(C)c1c(-c2cccc3nn(C[C@H](O)c4ccccc4)cc23)nc(-c2cc3cn(C)nc3cc2OC(F)(F)F)n1C [Example 109, (1R)-2-(4-{1-methyl-2-[2-methyl-6-(trifluoromethoxy)-2H-indazol-5-yl]-5-(propan-2-yl)-1H-imidazol-4-yl}-2H-indazol-2-yl)-1-phenylethan-1-ol] | 78
20 | Cn1cc2cc(-c3nc(-c4cccc5nn(C[C@H](O)c6ccccc6)cc45)c(C4CC4)n3C)c(C3CC3(F)F)nc2n1 (stereo partly drawn) [Example 110, (1R)-2-(4-{5-cyclopropyl-2-[6-(2,2-difluorocyclopropyl)-2-methyl-2H-pyrazolo[3,4-b]pyridin-5-yl]-1-methyl-1H-imidazol-4-yl}-2H-indazol-2-yl)-1-phenylethan-1-ol] | 85
